Reference: patent publication US20070197426A1, “Lactoferrin polypeptide, process for producing the same and inflammation inducing substance” (priority 2004, published 2007)

Columns and labels:
Format in all cases: cell-based
Conditions in all cases: normal human peripheral blood lymphocytes
MCP-1 = MCP-1 production by human peripheral blood lymphocytes co-cultured with peptide (enzyme antibody method)
Procedure: (§1) Lymphocytes were separated from normal human peripheral blood, which was collected by using heparin sodium, by specific gravity centrifugation using Lympholight H (Cedarlane, Canada), and inducing ability for production of various cytokines and chemokines and inducing ability for expression of NFκBp65, a cellular transcription factor, were analyzed using the lymphocytes. Human cytokines (IL-6 and TNFα; Techne Co., USA), chemokines (IL-8 and MCP-1; American Research Product, Inc., USA) and on NFκB (TransAM NFκB family transcription factor assay kit; Active Motif, Co., USA) were measured by enzyme antibody method.

NFκBp65 = NFκBp65 expression in human peripheral blood lymphocytes (TransAM NFκB family transcription factor assay kit)
Procedure: as §1

IL-8 = IL-8 production by human peripheral blood lymphocytes co-cultured with peptide (enzyme antibody method)
Procedure: as §1

IL-6 = IL-6 production by human peripheral blood lymphocytes co-cultured with peptide (enzyme antibody method)
Procedure: as §1

Row | Substance | inducing ability for production of MCP-1 (MCP-1) | enhancement of expression of NFκBp65, a cellular transcription factor (NFκBp65) | inducing ability for production of IL-8 (IL-8) | production of IL-6, one inflammatory cytokine (IL-6)
1 | GQKDLLFKDSAI [HuPep4] | confirmed | confirmed | confirmed | could be confirmed
2 | FKDCHLA [HuPep1] | confirmed | confirmed | confirmed | could be confirmed
